{"source": "patent US9518977B2", "about": "“Microfluidic assay apparatus and methods of use” (University of Washington through its Center for …, priority 2012, dated 2016)", "test_system": "GFP-labelled glioma cells in human GBM mouse xenograft slice", "experiment": "Drug testing on human GBM xenograft slices in microfluidic apparatus", "format": "cell-based", "conditions": "1 mM TMZ in culture medium, 48 hours selective exposure, 400 μm-thick slice, epifluorescence and confocal imaging", "description": "Two hundred thousand (200,000) viable glioma cells labelled by lentiviral GFP expression were orthotopically injected in the brain of an immunodeficient mouse following proper protocols. After approximately four weeks of tumor growth, the mouse was sacrificed and the mouse brain was then transported in ice cold culture medium prior to slicing. A vibratome tissue slicer was used to produce 400 μm-thick slices from a GBM xenograft mouse brain (the tissue was submerged in oxygenated ACSF during the slicing process). Then the slices were quickly transferred onto the PTFE membrane well inserts with pre-warmed culture medium and placed in an incubator. These slices were cultured for at least 24 hours (recovery) before being used for drug testing.\nTo proceed with drug testing, the GBM slice was transferred from the culture membrane well insert to the microfluidic apparatus by cutting the PTFE membrane out from the well insert and then placing it onto the plurality of open microchannels of the apparatus. […] Then the wells corresponding to the determined drug delivery channels were replaced with drug solution (1 mM of TMZ in culture medium; TMZ was chosen due to its clinical relevance to GBM), and then the apparatus was connected to a syringe pump with the total flow rate of 300 μL per hour in an incubator to initiate the drug delivery. […]", "note": "Entries after “also recorded” stand apart in the source; their conditions may differ."}
{"smiles": "Cn1nnc2c(C(N)=O)ncn2c1=O", "note": "[TMZ]", "values": [{"measurement": "cell death (loss of GFP-labelled glioma cells) at drug exposure regions", "result": "selectivity of cell death in the TMZ region; also recorded: loss of GFP-labelled glioma cells"}]}
